Patent US11986507B1, “Micronutrient composition to improve men's health” (priority 2023, dated 2024)

Key:
Assay type in all cases: cell-based
Mouse Leyden TM3 cells [1] = assay: Testosterone production assay in TM3 cells under pro-inflammatory conditions (TNF alpha); details: 10 ng/ml TNFa; for effect on testosterone secretion (in words): 48 h, in the presence and absence of DHEA (FIG. 3)
Method: (§1) Testosterone production assay: Mouse Leyden TM3 cells (ATCC) were cultured at 37° C., 5% CO2, in growth medium: 1:1 mixture of Ham's F12 medium and Dulbecco's modified Eagle's medium with 2.5 mM L-Glutamine, 0.5 mM Sodium Pyruvate, 1.2 g/L Sodium Bicarbonate and 15 mM HEPES, 92.5%; horse serum, 5%; fetal bovine serum, 2.5%. TM3 cells were seeded in 96-well plates covered with fibronectin or collagen (COSTAR) in […] growth medium. After reaching confluency cells were supplied with tested components in 100 mcl growth medium for 48 hour incubation. In some tests we also used additions of TNF alpha at 1 ng/ml and 10 ng/ml as indicated in appropriate figure legends. Testosterone content in 50 mcl conditioned cell culture medium samples was assayed with testosterone ELISA assay (DRG #EIA-1559) as described in the manufacturer's protocol.
It is known that chronic inflammation, such as in the presence of TNF alpha, can suppress testosterone production, which has physiological implications as it is related to an increased risk of infertility. Incubation was for 48 h with 10 ng/ml TNFa (all samples) and 1 mcg/ml DHEA or w/o DHEA. Data are presented as % of no additions Control. We evaluated the effects of micronutrients on testosterone production in Leydig cells exposed to a proinflammatory factor—TNF alpha.

Mouse Leyden TM3 cells [2] = assay: Testosterone production assay in TM3 cells, normal conditions (testosterone ELISA)
Method: as §1
The concentration of ingredients were Rosemary extract 20 mcg/ml, Fenugreek-20 mcg/ml, Cassia nomane—20 mcg/ml, 3′3-di indolylmethylene—5 mcg/ml, Zinc—2 mcg/ml, Phosphatidylserine—20 mcg/ml, Vitamin D—5 mcg/ml, Niacin—20 mcg/ml, Theanine—2 mcg/ml, Aspartic acid—2 mcg/ml, Arginine—2 mcg/ml and DHEA—2 mcg/ml.

[3] = tested on: IL6 release by Human Aortic Endothelial Cells (HAEC); assay: IL6 secretion by human aortic endothelial cells (HAEC) in the presence of LPS (ELISA); details: 24 h, 20 ng/ml LPS, with 200 mcM Ascorbate or w/o Ascorbate (FIG. 13)
Method: Cytokine assay in Human Aortic endothelial cells (AoEC): Human Aortic endothelial cells (AoEC, Lonza) were cultured in EBG-2 cell culture medium (Lonza) and used in experiments at 5-8 passages. AoEC were seeded in 96-well plates covered with fibronectin or collagen (COSTAR) in 100 mcl/well growth medium. After reaching confluency cells were supplemented with tested components in 100 mcl growth medium for 48 hour incubation. Levels of cytokines were assayed with corresponding ELISA assays (R&D Systems).
The test was carried out by incubating HAEC cells for 24 h in the presence of 20 ng/ml LPS (all samples) and 200 mcM Ascorbate or w/o Ascorbate.

[4] = tested on: Human aortic smooth muscle cells (AoSMC); assay: Collagen gel contraction by AoSMC; details: individual components (FIG. 6)
Method: Collagen gel contraction by AoSMC: Gel Contraction Assay: Human aortic smooth muscle cells (AoSMS) were obtained from Lonza Corporation and cultured in DMEM cell culture medium (ATCC) supplemented with 5% fetal bovine serum (ATCC). For experiments cells were suspended in DMEM medium at 500,000 per mL by trypsinization and mixed with equal volume of 2 mg/ml bovine skin collagen (Sigma) solution in DMEM. Resulting cell suspension was distributed at 300 mcl per well of plastic 24 well plate pretreated with 10 mg/ml bovine serum albumin in phosphate buffered saline. Collagen gels, formed in the wells after one hour incubation at 37° C., were supplemented with 500 mcl DMEM containing indicated amounts of tested compounds. After 24 hours incubation at 37° C. pictures of the wells were taken with digital photo camera and gel surface area was measured in pixels using ImageJ scientific software. Gel contraction was expressed as percentage of unsupplemented control using the following formula: (No Cell Control Gel Area−Tested Sample Gel Area)/(No Cell Control Gel Area−Not Supplemented Control Gel Area)*100%. All experiments were done in triplicates and results are expressed as mean values+/−SD.

| Compound | testosterone secretion, % of Control (Mouse Leyden TM3 cells [2]; 11 mcg/ml (FIG. 2)) | effect of individual compounds on IL-6 secretion (in words) [3] | effect on testosterone secretion (in words) (Mouse Leyden TM3 cells [1]) | also measured |
| --- | --- | --- | --- | --- |
| C[C@]12CC[C@H](O)CC1=CC[C@@H]1[C@@H]2CC[C@]2(C)C(=O)CC[C@@H]12 [DHEA, Dehydroepiandrosterone] | 1402 % of Control | – | – | decrease of testosterone secretion compared to normal Control (Mouse Leyden TM3 cells [1]; 1 mcg/ml DHEA, 48 h (FIG. 3)): about 48%; increase of testosterone secretion compared to control (Mouse Leyden TM3 cells [2]; 11 mcg/ml (FIG. 2)): 1402%; increase of testosterone secretion compared to control (Mouse Leyden TM3 cells [2]; 33 mcg/ml (FIG. 2)): 2361%; increase of testosterone secretion compared to control (Mouse Leyden TM3 cells [2]; applied individually, DHEA 2 mcg/ml (FIG. 1)): 161% |
| C=C1CC[C@H](O)C/C1=C/C=C1\CCC[C@]2(C)[C@@H]([C@H](C)CCCC(C)C)CC[C@@H]12 [Vitamin D, Cholecalciferol] | 115 % of Control | significant inhibitory effect | – | – |
| Oc1ccc(C=Cc2cc(O)cc(O)c2)cc1 [resveratrol] | – | – | decreasing | – |
| CC(=O)[O-].CC(=O)[O-].[Zn+2] [zinc, Zinc Acetate Dihydrate] | – | – | decreasing | SMC relaxation by individual compounds [4]: 69% |
| Phosphatidylserine | – | significant inhibitory effect | – | – |
